Measured values published in paper PMC12380092, “Chemoenzymatic total synthesis of the antibiotic (−)-13-deoxytetrodecamycin using the Diels–Alderase TedJ” (Chemical Science, 2025).

Molecular target: T1, TedJ (Streptomyces sp. WAC04657, UniProt Z9VZN5SQU4)
T1 construct: N-terminal hexa-histidine tag, recombinant in E. coli, purified; homodimer
T1 sequence (Z9VZN5SQU4 20-510): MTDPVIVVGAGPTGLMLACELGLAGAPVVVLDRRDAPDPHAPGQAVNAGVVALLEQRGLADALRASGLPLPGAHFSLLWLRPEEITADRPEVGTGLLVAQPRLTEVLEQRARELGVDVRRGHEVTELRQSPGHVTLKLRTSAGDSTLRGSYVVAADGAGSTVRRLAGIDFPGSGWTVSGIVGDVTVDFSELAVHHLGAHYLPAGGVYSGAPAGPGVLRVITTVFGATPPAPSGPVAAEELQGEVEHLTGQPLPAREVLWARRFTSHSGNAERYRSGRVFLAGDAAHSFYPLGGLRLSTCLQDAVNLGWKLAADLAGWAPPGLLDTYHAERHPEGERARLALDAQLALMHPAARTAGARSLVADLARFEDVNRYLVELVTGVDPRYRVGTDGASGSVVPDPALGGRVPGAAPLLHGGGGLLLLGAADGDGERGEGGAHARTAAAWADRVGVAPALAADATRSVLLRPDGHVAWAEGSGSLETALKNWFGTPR
Experiment: X-ray crystal structure ([…] Å); MS of denatured protein; absorbance spectrum
Format: binding
Details: non-covalently bound, co-purified; proposed structural role

Cc1cc2nc3c(=O)[nH]c(=O)nc-3n(C[C@H](O)[C@H](O)[C@H](O)COP(=O)(O)OP(=O)(O)OC[C@H]3O[C@@H](n4cnc5c(N)ncnc54)[C@H](O)[C@@H]3O)c2cc1C [FAD]
X-ray crystal structure (1.6 Å); MS of denatured protein; absorbance spectrum: showing the enzyme active site and non-covalently bound FAD molecule
